Earlier results in patent US4886800A, “Substituted cinnoline derivatives as CNS depressants” (ICI Americas Inc., priority 1985, dated 1989).

Tested on: specific [3H]flunitrazepam binding, lysed mitochondrial-synaptosomal (P2) fraction of cerebral cortex
Details: reference behaviour stated in the description of the test

SMILES | effect on flunitrazepam binding
CCCCNc1c(C(=O)OCC)cnc2c1cnn2CC [cartazolate] | enchancement of the binding
CCCCNc1c(C(=O)OCC)c(C)nc2c1cnn2CC [tracazolate] | enchancement of the binding
